This is an account of results in ChEMBL document CHEMBL1759863, “Synthesis and biological activity of hydroxy substituted phenyl-benzo[d]thiazole analogues for antityrosinase activity in B16 cells” (Bioorg Med Chem Lett, 2011).

The target in data set [1] is T1, Tyrosinase (Mus musculus) (UniProt P11344).
T1 sequence (whole entry): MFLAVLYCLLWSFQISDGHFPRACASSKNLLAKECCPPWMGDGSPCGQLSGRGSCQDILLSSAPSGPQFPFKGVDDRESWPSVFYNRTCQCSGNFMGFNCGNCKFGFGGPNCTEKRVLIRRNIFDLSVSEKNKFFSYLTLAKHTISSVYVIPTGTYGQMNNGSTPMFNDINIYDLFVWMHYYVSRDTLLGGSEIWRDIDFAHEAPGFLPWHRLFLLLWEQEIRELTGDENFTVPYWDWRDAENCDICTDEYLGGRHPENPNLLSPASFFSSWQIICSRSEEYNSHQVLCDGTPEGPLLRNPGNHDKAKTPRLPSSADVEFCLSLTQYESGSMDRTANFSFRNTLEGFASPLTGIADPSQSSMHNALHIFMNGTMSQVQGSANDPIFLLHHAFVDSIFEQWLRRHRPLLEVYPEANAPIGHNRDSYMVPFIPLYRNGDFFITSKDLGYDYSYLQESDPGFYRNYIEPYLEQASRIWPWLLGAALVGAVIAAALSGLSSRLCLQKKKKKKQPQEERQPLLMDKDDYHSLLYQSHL
The data set can be described thus: Inhibition of tyrosinase in alpha-MSH-induced mouse B16 cells at 10 uM. It counts as cell-based.

In data set [2] the target is T1, Tyrosinase (Mus musculus). The data set can be described thus: Inhibition of tyrosinase in alpha-MSH-induced mouse B16 cells at 5 uM. It counts as cell-based.
The target in data set [3] is T1, Tyrosinase (Mus musculus). The data set can be described thus: Inhibition of tyrosinase in alpha-MSH-induced mouse B16 cells at 2.5 uM. In kind it is cell-based.
Data set [4] has as its system B16. As to the kind of experiment: Cytotoxicity against mouse B16 cells assessed as viable cells at 10 uM after 48 hrs by MTT assay relative to control. In kind it is functional. The conditions noted are these: B16, 48 h, read-out: Activity.
Data set [5] relates to B16. The data set can be described thus: Cytotoxicity against mouse B16 cells assessed as viable cells at 5 uM after 48 hrs by MTT assay relative to control. In kind it is functional. The following applies: B16, 48 h, read-out: Activity.
For data set [6], the system named is B16. The data set can be described thus: Cytotoxicity against mouse B16 cells assessed as viable cells at 2.5 uM after 48 hrs by MTT assay relative to control. In kind it is functional. The conditions noted are these: B16, 48 h, read-out: Activity.
Data set [7] has as its system B16. The data set can be described thus: Cytotoxicity against mouse B16 cells assessed as viable cells at 1 uM after 48 hrs by MTT assay relative to control. It counts as functional. The conditions noted are these: B16, 48 h, read-out: Activity.
For data set [8], the system named is B16. The data set can be described thus: Cytotoxicity against mouse B16 cells assessed as viable cells at 0.2 uM after 48 hrs by MTT assay relative to control. In kind it is functional. The following applies: B16, 48 h, read-out: Activity.
Data set [9] deals with T2, Tyrosinase (Agaricus bisporus) (UniProt O42713).
T2 sequence (whole entry): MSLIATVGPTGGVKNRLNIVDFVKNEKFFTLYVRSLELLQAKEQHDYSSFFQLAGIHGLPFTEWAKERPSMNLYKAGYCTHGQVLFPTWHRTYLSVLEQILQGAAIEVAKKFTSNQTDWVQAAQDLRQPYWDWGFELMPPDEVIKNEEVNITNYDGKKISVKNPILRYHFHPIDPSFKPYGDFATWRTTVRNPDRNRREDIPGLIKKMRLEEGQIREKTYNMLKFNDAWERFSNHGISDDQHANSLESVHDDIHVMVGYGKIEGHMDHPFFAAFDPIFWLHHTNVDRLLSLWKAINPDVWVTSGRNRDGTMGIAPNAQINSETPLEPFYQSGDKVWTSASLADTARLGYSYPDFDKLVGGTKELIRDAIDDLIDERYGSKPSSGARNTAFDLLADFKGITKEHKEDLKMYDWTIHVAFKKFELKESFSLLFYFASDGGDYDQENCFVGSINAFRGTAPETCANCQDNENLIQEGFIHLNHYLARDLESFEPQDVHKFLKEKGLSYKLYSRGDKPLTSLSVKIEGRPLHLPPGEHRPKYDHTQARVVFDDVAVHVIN
The data set can be described thus: Inhibition of mushroom tyrosinase at 0.08 uM using L-tyrosine as a substrate.

The target in data set [10] is T2, Tyrosinase (Agaricus bisporus). As to the kind of experiment: Inhibition of mushroom tyrosinase at 0.01 uM using L-tyrosine as a substrate.
The target in data set [11] is T3, Tyrosinase (Agaricus bisporus, UniProt O42713).
T3 sequence (O42713 whole entry): T2 sequence (whole entry)

Data set [12] deals with T3, Tyrosinase. This is another data set of the same source.
In data set [13] the target is T3, Tyrosinase. This is another data set of the same source.
The test system of data set [14] is B16. As to the kind of experiment: cells. The conditions noted are these: Mus musculus, B16, 24 h, read-out: INH.
Data set [15] has as its system B16. The data set can be described thus: cells. The following applies: Mus musculus, B16, 24 h, read-out: INH. This is another data set of the same source.
The test system of data set [16] is B16. As to the kind of experiment: cells. The following applies: Mus musculus, B16, 24 h, read-out: INH. This is another data set of the same source.
Data set [17] deals with B16. As to the kind of experiment: cells. The conditions noted are these: Mus musculus, B16, 24 h, read-out: INH. The source holds these as a separate data set.
Data set [18] relates to B16. The data set can be described thus: cells. The following applies: Mus musculus, B16, 24 h, read-out: INH. This is another data set of the same source.
Data set [19] has as its target T1, Tyrosinase (Mus musculus). The data set can be described thus: Inhibition of tyrosinase in alpha-MSH-induced mouse B16 cells at 1 uM. It counts as cell-based.
Substrate in data set [20]: Oc1ccc(-c2nc3ccccc3s2)c(O)c1
The conditions noted are these: Agaricus bisporus; 1.25 uM.

Substrate in data set [21]: Oc1ccc(-c2nc3ccccc3s2)cc1
The conditions noted are these: Agaricus bisporus; 1.25 uM.

Substrate in data set [22]: Oc1ccc(-c2nc3ccccc3s2)c(O)c1
The data set can be described thus: (§1) Activity of mushroom tyrosinase at 20 uM by Lineweaver-Burk plot analysis. The following applies: Agaricus bisporus.

Substrate in data set [23]: Oc1ccc(-c2nc3ccccc3s2)cc1
Described as §1. The following applies: Agaricus bisporus.

Turning to `Oc1ccc(-c2nc3ccccc3s2)c(O)c1`, the inhibition was determined as 99.6% in data set [1]; 108% in [2]; 111% in [3]; 70.8% in data set [9]; 49.9% in data set [10]. In addition, the viability at 10 µM in the data set on B16 [4] stood at 94.4%. Moreover, the viability at 5 µM in the data set on B16 [5] is 94.6%. In addition, the viability at 2.5 µM with B16 [6] turned out to be 94.7%. Also, in the data set on B16 [7], the viability at 1 µM was 94.9%. For the same molecule, the viability at 0.2 µM with B16 [8] was 96.3%. The molecule also came in with an IC50 against Tyrosinase [11] of 10 nM. In addition, the Ki on Tyrosinase [12] is 673 nM; on Tyrosinase [13], 7700 nM. The inhibition at 10 µM in the data set with B16 [14] was found to be 131%. Further, the inhibition at 5 µM in the data set with B16 [15] was found to be 141%. In addition, in the data set on B16 [16], the inhibition at 2.5 µM came to 190%. The inhibition at 1 µM in the data set with B16 [17] was determined as 217%. The inhibition at 0.2 µM with B16 [18] came to 224%.
`Oc1ccc(-c2nc3ccccc3s2)cc1`: the inhibition is 95.2% in [1]; 97.7% in data set [2]; 98.8% in data set [3]; 133% in [19]; 46.2% in [9]; 45.4% in data set [10]. Besides, in the data set with B16 [4], the viability at 10 µM was 95.8%. In addition, the viability at 5 µM with B16 [5] was 96.5%. The viability at 2.5 µM in the data set on B16 [6] came to 97.6%. Also, in the data set with B16 [7], the viability at 1 µM was determined as 98.9%. For the same molecule, the viability at 0.2 µM with B16 [8] came to 99.7%. 1140 nM corresponded to half-maximal inhibition against Tyrosinase [11] (IC50). Also, the Ki was determined as 567 nM at Tyrosinase [12] and 1700 nM on Tyrosinase [13]. Moreover, in the data set with B16 [14], the inhibition at 10 µM was 97.1%. Moreover, the inhibition at 5 µM with B16 [15] was 104%. Besides, the inhibition at 2.5 µM in the data set on B16 [16] turned out to be 129%. Moreover, the inhibition at 1 µM in the data set on B16 [17] worked out at 188%. Further, the inhibition at 0.2 µM with B16 [18] is 201%.

B1: Tyrosinase (Agaricus bisporus), O42713 (protein)
chain: T2 sequence (whole entry)
Turning to B1, the Km in [20] came to 1160 µM; in data set [21], 1020 µM; in data set [22], 1460 µM; in data set [23] it was 5650 µM.
